Reference: patent US20060128759A1, “Substituted isoxazole derivatives and their use in pharmaceutics” (MERCKLE GMBH, priority 2002, published 2006)

molecular target: p38α (Homo sapiens, UniProt Q16539); experiment: Kinase assay (phosphorylation of ATF2 by activated p38α, ELISA readout at 405 nm); assay type: biochemical; conditions: activated p38α, ATF2 substrate, 100 μM ATP, 37° C., 1 hour; read-out: IC50 p 38
Experimental: • 1) The mononuclear cells (PBMCs) from human potassium-EDTA whole blood, diluted 1:3, are isolated by density gradient centrifugation (Histopaque®-1.077). The cells are washed twice with DPBS buffer, resuspended in macrophage SFM medium and adjusted to a cell count of 1*10^6 cells/ml. • The resulting PBMCs suspension (samples of in each case 390 μl) and the test substance are preincubated at 37° C. in a CO2 incubator (5% CO2; 95% moisture-saturated air) for 15 min. The samples are then stimulated with in each case 1 μl/ml of LPS (E. coli 026:B6) at 37° C. in a CO2 incubator (5% CO2; 95% moisture-saturated air) for 4 hours. The reaction is stopped by placing the samples on ice, adding DPBS buffer and then centrifuging at 15 880*g for 12 min. The amount of IL-1β and TNFα in the plasma supernatant is then determined by ELISA. • 2) Kinase assay • At 37° C., microtiter plates were coated for one hour with 50 μl of ATF2 solution (20 μg/ml). The plates were washed three times with water, and 50 μl of kinase mixture (50 mM tris-HCl 10 mM MgCl2, 10 mM β-glycerol phosphate, 10 μg/ml of BSA, 1 mM DTT, 100 μM ATP, 100 μM Na3VO4, 10 ng of activated p38α) with or without inhibitor were added into the wells, and the plates were incubated at 37° C. for 1 hour. The plates were washed three times and then incubated with phosphorus-ATF-2 antibody at 37° C. for one hour. The plates were once more washed three times, and goat-antirabbit IgG labeled with alkaline phosphatase was added at 37° C. for one hour (to fix the antibody-phosphorylated protein/substrate complex). The plates were washed three times, and the alkaline phosphatase/substrate solution (3 mM 4-NPP, 50 mM NaHCO3, 50 mM MgCl2, 100 μl/well) was added at 37° C. for 1.5 hours. […] The IC50 values were calculated.

Chain of p38α (Q16539 whole entry): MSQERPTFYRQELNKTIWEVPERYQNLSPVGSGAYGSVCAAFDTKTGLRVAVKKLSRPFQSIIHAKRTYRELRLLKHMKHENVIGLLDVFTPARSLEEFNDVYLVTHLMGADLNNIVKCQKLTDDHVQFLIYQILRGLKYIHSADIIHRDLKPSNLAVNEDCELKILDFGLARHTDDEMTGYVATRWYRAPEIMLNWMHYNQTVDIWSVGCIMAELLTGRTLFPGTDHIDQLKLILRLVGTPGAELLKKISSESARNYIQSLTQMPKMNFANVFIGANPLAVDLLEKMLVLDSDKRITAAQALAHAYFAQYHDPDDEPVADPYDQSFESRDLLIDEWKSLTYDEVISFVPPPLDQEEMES

IC50 [µM]	Compound
30	CC(=O)Nc1cc(-c2onc(-c3ccncc3)c2-c2ccc(F)cc2)ccn1 [Compound 3, N-{4-[4-(4-fluorophenyl)-3-pyridin-4-ylisoxazol-5-yl]pyridine-2-yl}acetamide]
4	CN(C)Cc1onc(-c2ccncc2)c1-c1ccc(F)cc1 [Compound 4, [4-(4-fluorophenyl)-3-pyridin-4-ylisoxazol-5-ylmethyl]dimethylamine]
22	Fc1ccc(-c2c(-c3ccncc3)noc2-c2ccccc2)cc1 [Compound 5, 4-[4-(4-fluorophenyl)-5-phenylisoxazol-3-yl]pyridine]
22	Fc1ccc(-c2c(-c3ccncc3)noc2-c2ccco2)cc1 [Compound 6, 4-[4-(4-fluorophenyl)-5-furan-2-ylisoxazol-3-yl]pyridine]
28	Fc1ccc(-c2c(-c3ccncc3)noc2C2CC2)cc1 [Compound 7, 4-[5-cyclopropyl-4-(4-fluorophenyl)isozazol-3-yl]pyridine]
27	CN(C)c1ccc(-c2onc(-c3ccncc3)c2-c2ccc(F)cc2)cc1 [Compound 8, {4-[4-(4-fluorophenyl)-3-pyridin-4-ylisoxazol-5-yl]phenyl}dimethylamine]
10	Fc1ccc(-c2c(-c3ccncc3)noc2N2CCCCC2)cc1 [Compound 9, 4-[4-(4-fluorophenyl)-5-piperidin-1-ylisoxazol-3-yl]pyridine]
10	COc1ccc(-c2onc(-c3ccncc3)c2-c2ccc(F)cc2)cc1 [Compound 10, 4-[4-(4-fluorophenyl)-5-(4-methoxyphenyl)isoxazol-3-yl]pyridine]

Compound	IC50 [µM]
4-[5-(ethoxyphenyl)-4-(4-fluorophenyl)isoxazol-3-yl]pyridine [Compound 11]	10
Cc1onc(-c2ccncc2)c1-c1ccc(F)cc1 [Compound 1, 4-[4-(4-fluorophenyl)-5-methylisoxazol-3-yl]pyridine]	67.5

same assay, conditions: at 10^−5 mol/l; read-out: % inhibition of p 38

inhibition at 10 µM [%]	Compound
43.6	Fc1ccc(-c2noc(-c3ccc(F)cc3)c2-c2ccncc2)cc1 [Compound 14, 4-[3,5-Bis(4-fluorophenyl)isoxazol-4-yl]pyridine]
